These results are taken from patent US20230014907A1, “INHIBITORS OF APOL1 AND METHODS OF USING SAME” (Vertex Pharmaceuticals Incorporated, priority 2020, published 2023).

The target of assay [1] is T1, G1 APOL1 (Homo sapiens, UniProt O14791, I384M/S342G).
T1 construct: expressed in transfected cells
T1 sequence (O14791 28-398 S342G/I384M): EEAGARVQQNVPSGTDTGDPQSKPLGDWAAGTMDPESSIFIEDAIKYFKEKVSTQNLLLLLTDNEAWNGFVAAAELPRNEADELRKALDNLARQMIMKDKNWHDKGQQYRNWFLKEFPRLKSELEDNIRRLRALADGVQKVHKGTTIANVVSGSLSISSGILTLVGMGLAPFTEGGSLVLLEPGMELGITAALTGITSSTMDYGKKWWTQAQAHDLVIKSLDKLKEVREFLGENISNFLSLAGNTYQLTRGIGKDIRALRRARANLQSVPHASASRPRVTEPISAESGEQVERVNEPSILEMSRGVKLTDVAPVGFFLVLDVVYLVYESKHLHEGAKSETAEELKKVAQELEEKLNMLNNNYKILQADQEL
Kind of assay: Acute APOL1 Thallium Assay with Inducible Stable Clones of HEK 293 Cells. It counts as cell-based. Conditions: HEK 293 inducible stable clones, G1 APOL1; read-out: Thallium Assay (IC50). In short, it runs like this:
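Pore activity was read as the fluorescence increase from Tl+ entering cells loaded with an AM-ester thallium indicator dye. The cells were tetracycline-inducible HEK293 T-Rex expressing G1 APOL1 (clone DC3.25), induced when plated at 26000 per well and incubated at 37° C.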

In assay [2] the target is T2, APOL1 G1 Protein (Homo sapiens, UniProt O14791, I384M/S342G).
T2 sequence (O14791 28-398 S342G/I384M): T1 sequence (O14791 28-398 S342G/I384M)
Kind of assay: Trypanosoma brucei brucei Lysis Assay Using APOL1 Recombinant Protein (AlamarBlue viability). It counts as cell-based. The settings on record: read-out: Trypanosomal Assay (IC50). In outline:
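Lister 427 bloodstream-form trypanosomes seeded at 120,000 per well in phenol-red-free, serum-free medium and lysed with recombinant APOL1 variant protein. Viability read by AlamarBlue (resazurin) fluorescence. Percent viability relative to untreated wells, interpolated from a standard curve of seeded parasites.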
(In general: Alamar Blue is a resazurin reagent that responds to reducing activity.)

Structures are written as SMILES.

As usually defined, the IC50 is the point on the concentration scale where inhibition reaches its midpoint.

Consider `C[C@@H](CO)NC(=O)CCc1c(-c2ccc(F)cc2)[nH]c2c(F)cc(F)cc12` [Compound 109], for which the IC50 in assay [1] and in assay [2] was 0.25 to 1 µM throughout.
In the case of `NC(=O)CNC(=O)CCc1c(-c2ccc(F)cc2)[nH]c2c(F)cc(F)cc12` [Compound 111], the IC50 in assay [1] and in assay [2] was greater than 1 µM in each case.
On to `O=C(CCc1c(-c2ccc(F)cc2)[nH]c2c(F)cc(F)cc12)N1CC[C@@H]1CO` [Compound 112], for which the IC50 was greater than 1 µM in assay [1] and 0.25 to 1 µM in assay [2].
Turning to `O=C(CCc1c(-c2ccc(F)cc2)[nH]c2c(F)cc(F)cc12)NC1CCCNC1=O` (stereo not shown) [Compound 113], the IC50 in assay [1] was greater than 1 µM; in assay [2], 0.25 to 1 µM.
As to `O=C(CCc1c(-c2ccc(F)cc2)[nH]c2c(F)cc(F)cc12)NC[C@H](O)C(F)(F)F` [Compound 114], the IC50 in assay [1] and in assay [2] was greater than 1 µM in each case.
`O=C(CCc1c(-c2ccc(F)cc2)[nH]c2c(F)cc(F)cc12)NC1(CO)CCOC1` (stereo not shown) [Compound 116]: the IC50 in assay [1] and in assay [2] was greater than 1 µM throughout.
As for `O=C(CCc1c(-c2ccc(F)cc2)[nH]c2c(F)cc(F)cc12)N1CCC[C@@H]1CO` [Compound 117], the IC50 in assay [1] was greater than 1 µM; in assay [2], 0.25 to 1 µM.
With `C#CC(CO)CNC(=O)CCc1c(-c2ccc(F)cc2)[nH]c2c(F)cc(F)cc12` (stereo not shown) [Compound 118], the half-inhibitory concentration (IC50) in assay [1] and in assay [2] was 0.25 to 1 µM in each case.
For `O=C(CCc1c(-c2ccc(F)cc2)[nH]c2c(F)cc(F)cc12)Nc1ccncc1` [Compound 119], the IC50 in assay [1] and in assay [2] was greater than 1 µM throughout.
`C[C@H](CO)NC(=O)CCc1c(-c2ccc(F)cc2)[nH]c2c(F)cc(F)cc12` [Compound 120]: the 50% inhibitory concentration (IC50) in assay [1] and in assay [2] was less than 0.25 µM in each case.
For the compound `O=C(CCc1c(-c2ccc(F)cc2)[nH]c2c(F)cc(F)cc12)N[C@@H](CO)C(F)(F)F` [Compound 121], the IC50 in assay [1] and in assay [2] was less than 0.25 µM in each case.
On to `O=C(CCc1c(-c2ccc(F)cc2)[nH]c2c(F)cc(F)cc12)NC1(CO)CC(F)(F)C1` [Compound 122], for which the results for the IC50 in assay [1] and in assay [2] were 0.25 to 1 µM and greater than 1 µM, respectively.
Turning to `NC(=O)[C@H](CO)NC(=O)CCc1c(-c2ccc(F)cc2)[nH]c2c(F)cc(F)cc12` [Compound 123], the 50% inhibitory concentration (IC50) in assay [1] and in assay [2] was greater than 1 µM throughout.
Regarding `O=C(CCc1c(-c2ccc(F)cc2)[nH]c2c(F)cc(F)cc12)NC1CCC1(F)F` (stereo not shown) [Compound 124], the results for the IC50 in assay [1] and in assay [2] were 0.25 to 1 µM and greater than 1 µM, respectively.
For `Cc1csc(NC(=O)CCc2c(-c3ccc(F)cc3)[nH]c3c(F)cc(F)cc23)n1` [Compound 125], in that order: greater than 1 µM and greater than 1 µM.
Turning to `O=C(CCc1c(-c2ccc(F)cc2)[nH]c2c(F)cc(F)cc12)NC1(CO)COC1` [Compound 126], the IC50 in assay [1] and in assay [2] was 0.25 to 1 µM each time.
For the compound `O=C(CCc1c(-c2ccc(F)cc2)[nH]c2c(F)cc(F)cc12)NC1(C(F)(F)F)CC1` [Compound 129], the IC50 in assay [1] and in assay [2] was greater than 1 µM in each case.
Turning to `O=C(CCc1c(-c2ccc(F)cc2)[nH]c2c(F)cc(F)cc12)NCc1ccc(Cl)s1` [Compound 130], the IC50 in assay [1] and in assay [2] was greater than 1 µM in each case.
For the compound `O=C(CCc1c(-c2ccc(F)cc2)[nH]c2c(F)cc(F)cc12)NC1(CO)CC1` [Compound 131], the half-maximal inhibitory concentration (IC50) in assay [1] and in assay [2] was less than 0.25 µM throughout.
As for `O=C(CCc1c(-c2ccc(F)cc2)[nH]c2c(F)cc(F)cc12)NCc1ncc[nH]1` [Compound 134], the IC50 in assay [1] and in assay [2] was greater than 1 µM in each case.
As to `O=C(CCc1c(-c2ccc(F)cc2)[nH]c2c(F)cc(F)cc12)N[C@H]1CC[C@H](O)C1` [Compound 135], the IC50 in assay [1] and in assay [2] was greater than 1 µM in each case.
Regarding `O=C(CCc1c(-c2ccc(F)cc2)[nH]c2c(F)cc(F)cc12)N1CCCC1CCO` (stereo not shown) [Compound 136], the IC50 in assay [1] and in assay [2] was greater than 1 µM in each case.
Take `O=C(CCc1c(-c2ccc(F)cc2)[nH]c2c(F)cc(F)cc12)NC[C@@H](O)C(F)(F)F` [Compound 137]: the IC50 in assay [1] and in assay [2] was greater than 1 µM throughout.
Take `O=C(CCc1c(-c2ccc(F)cc2)[nH]c2c(F)cc(F)cc12)N1CC[C@H]1CO` [Compound 138]: the IC50 in assay [1] and in assay [2] was greater than 1 µM each time.
`O=C(CCc1c(-c2ccc(F)cc2)[nH]c2c(F)cc(F)cc12)NC1C(=O)Nc2ccc(F)cc21` (stereo not shown) [Compound 139]: the IC50 in assay [1] and in assay [2] was greater than 1 µM each time.
Take `O=C(CCc1c(-c2ccc(F)cc2)[nH]c2c(F)cc(F)cc12)NCC1(CO)COC1` [Compound 140]: the half-inhibitory concentration (IC50) in assay [1] and in assay [2] was greater than 1 µM each time.
On to `CC(=O)OCC(CO)NC(=O)CCc1c(-c2ccc(F)cc2)[nH]c2c(F)cc(F)cc12` (stereo not shown) [Compound 141], for which the IC50 in assay [1] and in assay [2] was 0.25 to 1 µM throughout.
Take `O=C(CCc1c(-c2ccc(F)cc2)[nH]c2c(F)cc(F)cc12)NC1CC1(F)F` (stereo not shown) [Compound 142]: the IC50 in assay [1] and in assay [2] was greater than 1 µM in each case.
For the compound `CN(CCO)C(=O)CCc1c(-c2ccc(F)cc2)[nH]c2c(F)cc(F)cc12` [Compound 143], the IC50 in assay [1] and in assay [2] was greater than 1 µM throughout.
Consider `Cn1nccc1NC(=O)CCc1c(-c2ccc(F)cc2)[nH]c2c(F)cc(F)cc12` [Compound 144], for which the IC50 in assay [1] and in assay [2] was greater than 1 µM each time.
Consider `O=C(CCc1c(-c2ccc(F)cc2)[nH]c2c(F)cc(F)cc12)N1CCC[C@H]1CO` [Compound 145], for which the IC50 in assay [1] and in assay [2] was greater than 1 µM in each case.
Turning to `O=C(CCc1c(-c2ccc(F)cc2)[nH]c2c(F)cc(F)cc12)Nc1cnoc1` [Compound 146], the half-maximal inhibitory concentration (IC50) in assay [1] and in assay [2] was greater than 1 µM throughout.
Regarding `O=C(CCc1c(-c2ccc(F)cc2)[nH]c2c(F)cc(F)cc12)Nc1nnc(C(F)(F)F)o1` [Compound 148], the half-inhibitory concentration (IC50) in assay [1] and in assay [2] was greater than 1 µM each time.
For `C[C@@H](CO)N(C)C(=O)CCc1c(-c2ccc(F)cc2)[nH]c2c(F)cc(F)cc12` [Compound 149], the IC50 in assay [1] and in assay [2] was greater than 1 µM throughout.
In the case of `CN(CC(N)=O)C(=O)CCc1c(-c2ccc(F)cc2)[nH]c2c(F)cc(F)cc12` [Compound 150], the IC50 in assay [1] and in assay [2] was greater than 1 µM each time.
Consider `O=C(CCc1c(-c2ccc(F)cc2)[nH]c2c(F)cc(F)cc12)Nc1nnco1` [Compound 151], for which the IC50 in assay [1] and in assay [2] was greater than 1 µM each time.
Turning to `O=C(CCc1c(-c2ccc(F)cc2)[nH]c2c(F)cc(F)cc12)NCc1ncco1` [Compound 153], the IC50 in assay [1] and in assay [2] was greater than 1 µM throughout.
In the case of `O=C(CCc1c(-c2ccc(F)cc2)[nH]c2c(F)cc(F)cc12)NC1(CCO)CC1` [Compound 154], the IC50 in assay [1] and in assay [2] was greater than 1 µM throughout.
`O=C(CCc1c(-c2ccc(F)cc2)[nH]c2c(F)cc(F)cc12)NCc1cocn1` [Compound 155]: the IC50 in assay [1] and in assay [2] was greater than 1 µM in each case.
In the case of `COCCN(C)C(=O)CCc1c(-c2ccc(F)cc2)[nH]c2c(F)cc(F)cc12` [Compound 156], the IC50 in assay [1] and in assay [2] was greater than 1 µM throughout.
Take `O=C(CCc1c(-c2ccc(F)cc2)[nH]c2c(F)cc(F)cc12)NC(c1ccco1)C(F)(F)F` (stereo not shown) [Compound 157]: the IC50 in assay [1] and in assay [2] was greater than 1 µM each time.
Consider `CC(C)C[C@@H](CO)NC(=O)CCc1c(-c2ccc(F)cc2)[nH]c2c(F)cc(F)cc12` [Compound 158], for which the IC50 in assay [1] and in assay [2] was greater than 1 µM throughout.
As for `O=C(CCc1c(-c2ccc(F)cc2)[nH]c2c(F)cc(F)cc12)Nc1ccon1` [Compound 160], the IC50 in assay [1] and in assay [2] was greater than 1 µM throughout.
With `O=C(CCc1c(-c2ccc(F)cc2)[nH]c2c(F)cc(F)cc12)NC1(C(F)(F)F)CCC1` [Compound 161], the 50% inhibitory concentration (IC50) in assay [1] and in assay [2] was greater than 1 µM throughout.
`O=C(CCc1c(-c2ccc(F)cc2)[nH]c2c(F)cc(F)cc12)Nc1ncco1` [Compound 162]: the half-inhibitory concentration (IC50) in assay [1] and in assay [2] was greater than 1 µM in each case.
On to `Cn1ccc(NC(=O)CCc2c(-c3ccc(F)cc3)[nH]c3c(F)cc(F)cc23)n1` [Compound 163], for which the IC50 in assay [1] and in assay [2] was greater than 1 µM each time.
Consider `COCCNC(=O)CCc1c(-c2ccc(F)cc2)[nH]c2c(F)cc(F)cc12` [Compound 164], for which the IC50 in assay [1] and in assay [2] was greater than 1 µM throughout.
`Cn1nnnc1NC(=O)CCc1c(-c2ccc(F)cc2)[nH]c2c(F)cc(F)cc12` [Compound 165]: the half-inhibitory concentration (IC50) in assay [1] and in assay [2] was greater than 1 µM throughout.
As to `CN(CC(F)(F)F)C(=O)CCc1c(-c2ccc(F)cc2)[nH]c2c(F)cc(F)cc12` [Compound 166], the IC50 in assay [1] and in assay [2] was greater than 1 µM in each case.
As for `O=C(CCc1c(-c2ccc(F)cc2)[nH]c2c(F)cc(F)cc12)Nc1nccs1` [Compound 167], the IC50 in assay [1] and in assay [2] was greater than 1 µM each time.
